According to PubChem BioAssay (NCI):
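Interpolation was linear, between the two tested concentrations surrounding the appropriate level; five concentrations were tested over 48 hours in 96-well plates. Abbreviation: GI50, concentration required for 50% inhibition of growth. TGI: concentration producing complete growth inhibition.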

How the values were obtained:
Test in all cases: DTP human tumour cell line panel, 48 h
[1] = test system: A498 renal
[2] = test system: HS 578T breast
[3] = test system: SNB-19 CNS
[4] = test system: MDA-MB-435
[5] = test system: EKVX NSCLC
[6] = test system: NCI-H460 lung
[7] = test system: OVCAR-5 ovarian
[8] = test system: KM12 colon
[9] = test system: CCRF-CEM leukemia
[10] = test system: HL-60(TB) leukemia
[11] = test system: MCF7 breast
[12] = test system: OVCAR-3 ovarian
[13] = test system: HOP-92 NSCLC
[14] = test system: SK-MEL-5 melanoma
[15] = test system: CAKI-1 renal
[16] = test system: OVCAR-4 ovarian
[17] = test system: DU-145 prostate
[18] = test system: HCT-116 colon
[19] = test system: ACHN renal
[20] = test system: A549 NSCLC
[21] = test system: SK-MEL-2 melanoma
[22] = test system: PC-3 prostate
[23] = test system: 786-0 renal
[24] = test system: SF-268 CNS
[25] = test system: IGROV1 ovarian
[26] = test system: TK-10 renal
[27] = test system: SK-MEL-28 melanoma
[28] = test system: UACC-62 melanoma
[29] = test system: SNB-75 CNS

`NC(CSC(c1ccccc1)(c1ccccc1)c1ccc(Br)cc1)C(=O)O` (configuration not stated) was tested. Which GI50 [1] did it give?
The GI50 was 259 nM.

What about the TGI [1] of the same molecule?
The TGI was 32500 nM.

And the GI50 [2]?
The GI50 was 62.1 nM.

And the TGI [2]?
Its TGI is 219 nM.

What about the GI50 [3] of the same molecule?
Its GI50 is 296 nM.

And the TGI [3]?
The TGI was over 76600 nM.

And the GI50 [4]?
Its GI50 is 40.2 nM.

What about the TGI [4] of the same molecule?
The TGI was 199 nM.

And the GI50 [5]?
The GI50 was 707 nM.

What about the TGI [5] of the same molecule?
Its TGI is over 100000 nM.

What about the GI50 [6] of the same molecule?
The GI50 was 175 nM.

What about the TGI [6] of the same molecule?
Its TGI is 18100 nM.

And the GI50 [7]?
The GI50 was 5130 nM.

And the TGI [7]?
Its TGI is over 100000 nM.

What about the GI50 [8] of the same molecule?
The GI50 was 212 nM.

What about the TGI [8] of the same molecule?
The TGI was 12700 nM.

And the GI50 [9]?
The GI50 was 94.1 nM.

And the GI50 [10]?
Its GI50 is 412 nM.

And the TGI [10]?
The TGI was 75300 nM.

What about the GI50 [11] of the same molecule?
Its GI50 is 57.3 nM.

What about the TGI [11] of the same molecule?
The TGI was over 51200 nM.

And the GI50 [12]?
Its GI50 is 94.2 nM.

And the TGI [12]?
Its TGI is 412 nM.

What about the GI50 [13] of the same molecule?
Its GI50 is 2470 nM.

And the TGI [13]?
The TGI was 39600 nM.

And the GI50 [14]?
Its GI50 is 72.1 nM.

And the TGI [14]?
The TGI was 12200 nM.

And the GI50 [15]?
Its GI50 is 499 nM.

And the TGI [15]?
The TGI was over 100000 nM.

What about the GI50 [16] of the same molecule?
The GI50 was 19900 nM.

What about the TGI [16] of the same molecule?
The TGI was over 100000 nM.

What about the GI50 [17] of the same molecule?
Its GI50 is 236 nM.

And the TGI [17]?
The TGI was 548 nM.

And the GI50 [18]?
The GI50 was 46.9 nM.

And the TGI [18]?
The TGI was 5710 nM.

What about the GI50 [19] of the same molecule?
The GI50 was 11600 nM.

What about the TGI [19] of the same molecule?
Its TGI is over 100000 nM.

And the GI50 [20]?
Its GI50 is 375 nM.

What about the TGI [20] of the same molecule?
Its TGI is over 82300 nM.

What about the GI50 [21] of the same molecule?
Its GI50 is 14500 nM.

And the TGI [21]?
The TGI was over 78200 nM.

What about the GI50 [22] of the same molecule?
Its GI50 is 170 nM.

What about the TGI [22] of the same molecule?
Its TGI is over 77700 nM.

And the GI50 [23]?
Its GI50 is 119 nM.

What about the TGI [23] of the same molecule?
Its TGI is 1580 nM.

And the GI50 [24]?
The GI50 was 151 nM.

What about the TGI [24] of the same molecule?
The TGI was 22400 nM.

What about the GI50 [25] of the same molecule?
The GI50 was 293 nM.

What about the TGI [25] of the same molecule?
The TGI was 40800 nM.

What about the GI50 [26] of the same molecule?
Its GI50 is 14000 nM.

And the TGI [26]?
The TGI was over 100000 nM.

And the GI50 [27]?
Its GI50 is 366 nM.

And the TGI [27]?
The TGI was 31700 nM.

And the GI50 [28]?
Its GI50 is 170 nM.

And the TGI [28]?
The TGI was 17400 nM.

And the GI50 [29]?
Its GI50 is 729 nM.

What about the TGI [29] of the same molecule?
Its TGI is over 50800 nM.
